Laboratory results published in ChEMBL document CHEMBL4251627, “Structural and biological characterization of new hybrid drugs joining an HDAC inhibitor to different NO-donors” (Eur J Med Chem, 2018).
pEC50, pIC50: −log10 of the molar value. Calls of active or inactive are those of the source. The calls are words filed in the database; no cut-off is given here.

Experiments:
HaCaT = assay: Cytotoxicity against human HaCaT cells assessed as increase in dead cells 0.1 to 100 uM after 72 hrs by Trypan Blue-based assay; type: cell-based
C2C12 [1] = assay: Cytotoxicity against mouse C2C12 cells assessed as increase in dead cells 0.5 to 10 uM after 72 hrs by Trypan Blue-based assay; type: cell-based; conditions: c2c12, 72 h
Histone deacetylase 2 [2] = target: T1, Histone deacetylase 2 (Homo sapiens, UniProt Q92769); assay: Inhibition of FLAG-tagged HDAC2 (unknown origin) expressed in HEK293T cells using acetylated lysine side chain as substrate after 1 hr by colorimetric detection based assay; type: cell-based
[3] = Activation of soluble guanylyl cyclase in Wistar rat aortic strips assessed as dilation of L-phenylephrine-induced contraction administered 5 mins before contraction in presence of ODQ by isometric transducer analysis
Histone deacetylase 1 = Histone deacetylase 1 (Homo sapiens, UniProt Q13547); assay: Inhibition of human FLAG-tagged HDAC1 expressed in HEK293T cells using acetylated lysine side chain as substrate after 1 hr by colorimetric detection based assay
Histone deacetylase 2 [4] = target: T1, Histone deacetylase 2; assay: Induction of HDAC2 S-nitrosylation in human HaCaT cells after 1 hr by immunoprecipitation and Western blot analysis; type: cell-based
C2C12 [5] = assay: Induction of skeletal muscle differentiation in mouse C2C12 cells assessed as myotube formation by measuring MHC expression at 0.5 uM after 5 days by DAPI-staining based microscopy; type: functional, cell-based
[6] = target: Histone deacetylase 5 (Homo sapiens) (UniProt Q9UQL6); assay: Induction of HDAC5 nuclear translocation in human HaCaT cells at 10 uM after 1 hr by immunofluorescence analysis; type: cell-based
[7] = Drug metabolism in human HaCaT cells assessed as induction of NO release at 10 uM by DAF-2D-based FACS analysis; type: ADME, cell-based; conditions: TDE = time-dependent effect
Rattus norvegicus = assay: (§1) Activation of soluble guanylyl cyclase in Wistar rat aortic strips assessed as dilation of L-phenylephrine-induced contraction administered 5 mins before contraction by isometric transducer analysis
[8] = as §1
[9] = target: Histone deacetylase 4 (Homo sapiens) (UniProt P56524); assay: Induction of HDAC4 nuclear translocation in human HaCaT cells at 10 uM after 1 hr by immunofluorescence analysis; type: cell-based
Histone deacetylase 3 = Histone deacetylase 3 (Homo sapiens, UniProt O15379); assay: Inhibition of human FLAG-tagged HDAC3 expressed in HEK293T cells using acetylated lysine side chain as substrate after 1 hr by colorimetric detection based assay; type: cell-based
[10] = target: Histone deacetylase (Homo sapiens) (UniProt Q13547+O15379+Q9UBN7+Q92769+Q9UQL6+Q8WUI4+Q9BY41+Q96DB2+P56524+Q9UKV0+Q969S8); assay: Inhibition of HDAC in human HaCaT cells at 10 uM using acetylated lysine side chain as substrate incubated for 1 hr by colorimetric detection based assay relative to control; type: cell-based
[11] = Drug metabolism in human HaCaT cells assessed as induction of NO release at 10 uM after 1 hr by DAF-2D-based FACS analysis; type: ADME, cell-based
[12] = Drug metabolism in human HaCaT cells assessed as induction of NO release at 50 to 100 uM after 1 hr by DAF-2D-based FACS analysis; type: ADME, cell-based
C2C12 [13] = assay: Induction of skeletal muscle differentiation in mouse C2C12 cells assessed as increase in myoblast fusion by measuring MyoM expression at 0.5 uM after 5 days by qRT-PCR analysis; type: functional, cell-based
C2C12 [14] = assay: Induction of skeletal muscle differentiation in mouse C2C12 cells assessed as induction of multinucleated fibers at 0.5 uM after 5 days by DAPI-staining based microscopy; type: functional, cell-based

T1 sequence (Q92769 whole entry): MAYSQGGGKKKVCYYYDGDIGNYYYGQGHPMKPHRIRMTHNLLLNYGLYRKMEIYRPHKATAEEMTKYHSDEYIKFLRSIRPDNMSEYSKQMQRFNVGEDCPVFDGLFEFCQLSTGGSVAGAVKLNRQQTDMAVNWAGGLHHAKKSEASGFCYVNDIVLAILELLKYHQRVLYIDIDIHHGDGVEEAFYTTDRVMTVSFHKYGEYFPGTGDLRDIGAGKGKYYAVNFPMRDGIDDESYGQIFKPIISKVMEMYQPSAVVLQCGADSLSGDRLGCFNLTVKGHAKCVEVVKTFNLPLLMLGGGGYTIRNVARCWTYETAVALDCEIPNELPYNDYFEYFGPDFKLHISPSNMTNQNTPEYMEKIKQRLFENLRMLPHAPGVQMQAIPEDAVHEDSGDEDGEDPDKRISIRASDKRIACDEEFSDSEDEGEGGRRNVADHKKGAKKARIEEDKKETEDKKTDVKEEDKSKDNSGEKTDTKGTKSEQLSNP
Histone deacetylase 1, sequence (Q13547 whole entry): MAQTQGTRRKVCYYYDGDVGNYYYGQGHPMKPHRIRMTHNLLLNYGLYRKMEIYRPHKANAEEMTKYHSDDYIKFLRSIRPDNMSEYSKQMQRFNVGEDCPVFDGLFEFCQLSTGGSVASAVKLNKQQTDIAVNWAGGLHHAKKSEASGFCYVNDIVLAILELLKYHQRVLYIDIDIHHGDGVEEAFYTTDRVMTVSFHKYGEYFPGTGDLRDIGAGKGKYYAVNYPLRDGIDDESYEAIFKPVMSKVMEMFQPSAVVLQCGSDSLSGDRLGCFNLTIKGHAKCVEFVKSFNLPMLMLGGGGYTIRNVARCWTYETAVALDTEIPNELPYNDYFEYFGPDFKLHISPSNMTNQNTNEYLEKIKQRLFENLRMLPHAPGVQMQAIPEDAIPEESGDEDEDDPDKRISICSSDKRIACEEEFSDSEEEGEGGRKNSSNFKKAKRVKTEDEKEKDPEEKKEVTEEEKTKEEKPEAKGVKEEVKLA
Histone deacetylase 4 (Homo sapiens), sequence (P56524 whole entry): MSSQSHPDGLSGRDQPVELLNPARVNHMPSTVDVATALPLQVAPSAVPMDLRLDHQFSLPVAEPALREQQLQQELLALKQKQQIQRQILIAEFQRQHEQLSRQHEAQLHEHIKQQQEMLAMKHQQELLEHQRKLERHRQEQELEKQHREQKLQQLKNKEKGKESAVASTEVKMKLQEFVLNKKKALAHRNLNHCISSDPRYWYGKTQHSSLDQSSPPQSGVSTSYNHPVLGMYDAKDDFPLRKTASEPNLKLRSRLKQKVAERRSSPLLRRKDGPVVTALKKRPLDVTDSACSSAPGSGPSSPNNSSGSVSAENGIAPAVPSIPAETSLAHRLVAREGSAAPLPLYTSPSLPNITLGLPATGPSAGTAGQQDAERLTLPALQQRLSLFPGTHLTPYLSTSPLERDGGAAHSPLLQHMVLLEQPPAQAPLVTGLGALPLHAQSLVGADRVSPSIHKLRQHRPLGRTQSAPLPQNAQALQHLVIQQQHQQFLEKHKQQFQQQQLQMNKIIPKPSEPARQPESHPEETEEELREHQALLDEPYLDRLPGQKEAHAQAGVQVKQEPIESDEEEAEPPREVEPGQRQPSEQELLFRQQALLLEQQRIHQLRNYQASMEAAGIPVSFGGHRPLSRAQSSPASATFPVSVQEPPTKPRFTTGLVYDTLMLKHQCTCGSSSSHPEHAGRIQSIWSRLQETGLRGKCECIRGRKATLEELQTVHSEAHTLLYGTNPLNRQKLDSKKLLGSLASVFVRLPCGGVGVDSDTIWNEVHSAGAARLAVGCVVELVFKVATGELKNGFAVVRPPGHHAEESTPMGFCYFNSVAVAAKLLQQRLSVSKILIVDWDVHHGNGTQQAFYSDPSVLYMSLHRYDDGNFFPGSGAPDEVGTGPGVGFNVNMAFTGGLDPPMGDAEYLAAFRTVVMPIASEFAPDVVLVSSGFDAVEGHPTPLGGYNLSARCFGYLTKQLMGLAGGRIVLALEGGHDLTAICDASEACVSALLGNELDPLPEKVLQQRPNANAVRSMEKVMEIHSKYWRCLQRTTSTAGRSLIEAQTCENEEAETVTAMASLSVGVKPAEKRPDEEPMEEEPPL
Histone deacetylase 3, sequence (O15379 whole entry): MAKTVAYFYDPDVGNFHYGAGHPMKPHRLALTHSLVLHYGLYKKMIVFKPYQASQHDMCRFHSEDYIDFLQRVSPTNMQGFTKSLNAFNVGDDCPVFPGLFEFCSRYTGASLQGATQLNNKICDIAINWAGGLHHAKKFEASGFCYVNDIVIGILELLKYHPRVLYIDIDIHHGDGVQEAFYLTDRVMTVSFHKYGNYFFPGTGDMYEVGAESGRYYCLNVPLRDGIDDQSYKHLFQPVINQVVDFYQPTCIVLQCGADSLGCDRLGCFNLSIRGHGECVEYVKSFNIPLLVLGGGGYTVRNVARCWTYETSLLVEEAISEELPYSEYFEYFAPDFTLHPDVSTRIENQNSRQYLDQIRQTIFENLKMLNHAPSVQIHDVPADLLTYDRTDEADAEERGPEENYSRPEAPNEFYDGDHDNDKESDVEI
Histone deacetylase 5 (Homo sapiens), sequence (Q9UQL6 whole entry): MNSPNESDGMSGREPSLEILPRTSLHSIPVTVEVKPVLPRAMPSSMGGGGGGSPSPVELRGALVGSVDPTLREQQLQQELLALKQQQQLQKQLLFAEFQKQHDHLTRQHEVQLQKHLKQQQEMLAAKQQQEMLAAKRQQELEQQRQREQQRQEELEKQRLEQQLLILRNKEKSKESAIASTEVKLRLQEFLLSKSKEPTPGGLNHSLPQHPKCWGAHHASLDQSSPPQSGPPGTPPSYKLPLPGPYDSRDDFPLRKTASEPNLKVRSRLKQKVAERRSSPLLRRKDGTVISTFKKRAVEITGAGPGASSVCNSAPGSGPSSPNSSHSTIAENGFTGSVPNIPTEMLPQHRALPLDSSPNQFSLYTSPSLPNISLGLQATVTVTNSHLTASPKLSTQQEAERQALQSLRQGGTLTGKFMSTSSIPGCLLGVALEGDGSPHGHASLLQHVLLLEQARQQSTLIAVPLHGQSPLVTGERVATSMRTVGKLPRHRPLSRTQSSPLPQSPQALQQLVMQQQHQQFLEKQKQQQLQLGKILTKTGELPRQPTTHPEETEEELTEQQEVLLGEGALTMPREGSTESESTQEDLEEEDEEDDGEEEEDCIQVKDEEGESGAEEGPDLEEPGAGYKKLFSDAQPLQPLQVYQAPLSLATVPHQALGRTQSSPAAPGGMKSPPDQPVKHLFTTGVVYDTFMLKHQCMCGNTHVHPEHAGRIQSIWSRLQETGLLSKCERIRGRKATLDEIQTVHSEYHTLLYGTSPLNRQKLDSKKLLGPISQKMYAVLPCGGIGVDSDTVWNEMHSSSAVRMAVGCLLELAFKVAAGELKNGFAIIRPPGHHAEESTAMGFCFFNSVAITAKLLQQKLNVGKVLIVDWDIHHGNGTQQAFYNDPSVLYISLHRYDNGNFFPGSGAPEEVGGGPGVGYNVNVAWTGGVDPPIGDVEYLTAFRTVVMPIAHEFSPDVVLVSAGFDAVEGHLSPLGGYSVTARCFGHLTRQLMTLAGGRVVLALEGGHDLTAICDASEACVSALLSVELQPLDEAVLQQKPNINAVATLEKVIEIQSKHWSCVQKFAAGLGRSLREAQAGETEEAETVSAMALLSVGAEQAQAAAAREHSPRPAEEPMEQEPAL

Row | SMILES | pIC50 (Histone deacetylase 2 [2]) | pEC50 [3] | pIC50 (Histone deacetylase 1) | Activity (Histone deacetylase 2 [4]) | Activity [6] | Drug metabolism [7] | Activity (Rattus norvegicus) | pEC50 [8] | Activity [9] | pIC50 (Histone deacetylase 3) | inhibition [10] [%] | Drug metabolism [11] | Drug metabolism [12] | Activity (HaCaT) | Activity (C2C12 [1]) | Activity (C2C12 [5]) | Activity (C2C12 [13]) | Activity (C2C12 [14])
1 | Nc1ccccc1NC(=O)c1ccc(CNC(=O)OCc2cccnc2)cc1 [ENTINOSTAT] |  |  |  |  |  |  |  |  |  |  |  |  |  | Toxic | Toxic |  |  | 
2 | CN(C)CCCCC(CO[N+](=O)[O-])O[N+](=O)[O-] (centres undefined) |  | < 4.00 |  |  |  |  | Dose-dependent effect | 6.10 |  |  |  |  |  |  |  |  |  | 
3 | CN(CCCO[N+](=O)[O-])Cc1ccc(COC(=O)NCc2ccc(C(=O)Nc3ccccc3N)cc2)cn1.Cl.Cl.Cl |  | 4.36 |  |  |  |  | Dose-dependent effect | 5.59 |  |  | 20 to 50 | Metabolite_Notdetected |  |  |  |  |  | 
4 | COCCOc1no[n+]([O-])c1S(=O)(=O)c1ccccc1 |  | 6.37 |  |  |  |  | Dose-dependent effect | 8.35 |  |  |  |  |  |  |  |  |  | 
5 | CN(CCCCC(CO[N+](=O)[O-])O[N+](=O)[O-])Cc1ccc(COC(=O)NCc2ccc(C(=O)Nc3ccccc3N)cc2)cn1.Cl.Cl.Cl (centres undefined) | 6.41 | 4.96 | 5.98 | Active | Active |  | Dose-dependent effect | 6.54 | Active | 5.91 | 20 to 50 | Metabolite_Detected |  | Non-Toxic | Non-Toxic | Active | Active | Active

Further lines, with some results ahead:

Row | pIC50 (Histone deacetylase 2 [2]) | pEC50 [3] | pIC50 (Histone deacetylase 1) | Activity (Histone deacetylase 2 [4]) | Activity [6] | Drug metabolism [7] | Activity (Rattus norvegicus) | pEC50 [8] | Activity [9] | pIC50 (Histone deacetylase 3) | inhibition [10] [%] | Drug metabolism [11] | Drug metabolism [12] | SMILES | Activity (HaCaT) | Activity (C2C12 [1]) | Activity (C2C12 [5]) | Activity (C2C12 [13]) | Activity (C2C12 [14])
6 | 6.43 | 6.46 | 5.99 | Active | Active | Tde | Dose-dependent effect | 7.51 | Active | 5.92 | 20 to 50 |  |  | Nc1ccccc1NC(=O)c1ccc(CNC(=O)OCc2ccc(OCCOc3no[n+]([O-])c3S(=O)(=O)c3ccccc3)nc2)cc1 | Non-Toxic | Non-Toxic | Active |  | 
7 |  | < 4.00 |  |  |  |  | Dose-dependent effect | 5.47 |  |  | 20 to 50 | Metabolite_Detected |  | Nc1ccccc1NC(=O)c1ccc(CNC(=O)OCc2ccc(OCCOc3no[n+]([O-])c3-c3ccccc3)nc2)cc1 |  |  |  |  | 
8 |  | 4.20 |  |  |  |  | Dose-dependent effect | 5.47 |  |  | 20 to 50 | Metabolite_Notdetected | Metabolite_Notdetected | CN(Cc1ccc(COC(=O)NCc2ccc(C(=O)Nc3ccccc3N)cc2)cn1)Cc1no[n+]([O-])c1C(N)=O.Cl.Cl.Cl |  |  |  |  | 
9 |  | 6.02 |  | Active |  |  | Dose-dependent effect | 7.62 |  |  | 20 to 50 |  |  | CN(Cc1ccc(COC(=O)NCc2ccc(C(=O)Nc3ccccc3N)cc2)cn1)Cc1no[n+]([O-])c1C#N |  |  |  |  | 
